The text below walks through data of patent US9776972B2, “Pyrazole derivatives as arginine methyltransferase inhibitors and uses thereof” (priority 2013, dated 2017).

SMILES strings stand for the structures. Structures can show the parent of a compound that is named as a salt.

For this assay, the target named is T1, Human CARM1 (PRMT4) (Homo sapiens, UniProt Q86X55).
T1 construct: Flag-CARM1-His; made in house; host or cells: HEK 293F cells (BacMam baculovirus)
T1 sequence (Q86X55 1-585 isoform Q86X55-1): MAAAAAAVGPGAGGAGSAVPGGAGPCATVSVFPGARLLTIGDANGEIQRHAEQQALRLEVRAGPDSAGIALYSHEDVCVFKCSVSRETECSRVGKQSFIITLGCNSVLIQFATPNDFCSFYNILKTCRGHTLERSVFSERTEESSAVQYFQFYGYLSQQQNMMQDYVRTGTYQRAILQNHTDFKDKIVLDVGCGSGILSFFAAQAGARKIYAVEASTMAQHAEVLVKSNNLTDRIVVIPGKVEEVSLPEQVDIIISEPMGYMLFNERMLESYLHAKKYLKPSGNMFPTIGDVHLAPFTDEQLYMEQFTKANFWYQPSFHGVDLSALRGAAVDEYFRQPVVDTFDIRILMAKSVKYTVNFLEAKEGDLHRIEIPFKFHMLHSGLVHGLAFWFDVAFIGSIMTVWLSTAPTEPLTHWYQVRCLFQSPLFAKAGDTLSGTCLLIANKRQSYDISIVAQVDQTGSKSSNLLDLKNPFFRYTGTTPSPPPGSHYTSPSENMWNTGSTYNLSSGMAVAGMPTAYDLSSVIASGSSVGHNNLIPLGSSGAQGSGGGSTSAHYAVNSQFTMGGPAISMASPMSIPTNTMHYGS
In words: CARM1 Biochemical Assay (3H-SAM Flashplate, peptide substrate). To be noted: single experiment or average of multiple experiments. From the text:
S-adenosylmethionine (SAM), S-adenosylhomocysteine (SAH), bicine, Tween20, dimethylsulfoxide (DMSO), bovine skin gelatin (BSG), sodium butyrate and Tris(2-carboxyethyl)phosphine hydrochloride solution (TCEP) were purchased from Sigma-Aldrich at the highest level of purity possible. ^3H-SAM was purchase from American Radiolabeled Chemicals with a specific activity of 80 Ci/mmol. 384-well streptavidin Flashplates were purchased from PerkinElmer.
Peptide representative of human histone H3 residues 16-30 was synthesized with an N-terminal linker-affinity tag motif and a C-terminal amide cap by 21st Century Biochemicals. […] The sequence was Biot-Ahx-[…]-amide and contained a monomethylated arginine at position 26 (SEQ ID NO.: 14).
Recombinant baculovirus were generated according to Bac-to-Bac kit instructions (Life Technologies). […] Infections were carried out at 37° C. for 48 hours, harvested by centrifugation, and stored at −80° C. for purification.
Column was washed with 500 mM NaCl in buffer A and Flag-CARM1-His was eluted with 200 ug/ml FLAG peptide in buffer A. Pooled fractions were dialyzed in 20 mM Tris, 150 mM NaCl, 5% glycerol and 1 mM DTT, pH 7.8.
General Procedure for CARM1 Enzyme Assays on Peptide Substrates.
The assays were all performed in a buffer consisting of 20 mM Bicine (pH=7.6), 1 mM TCEP, 0.005% BSG, and 0.002% Tween 20, prepared on the day of use. […] DMSO (1 ul) was added to Columns 11, 12, 23, 24, rows A-H for the maximum signal control and 1 ul of SAH, a known product and inhibitor of CARM1, was added to columns 11, 12, 23, 24, rows I-P for the minimum signal control. A cocktail (40 ul) containing the CARM1 enzyme was added by Multidrop Combi (Thermo-Fisher). The compounds were allowed to incubate with CARM1 for 30 min at room temperature, then a cocktail (10 ul) containing ^3H-SAM and peptide was added to initiate the reaction (final volume=51 ul). […] The assays were stopped by the addition of non-radiolabeled SAM (10 ul) to a final concentration of 300 uM, which dilutes the ^3H-SAM to a level where its incorporation into the peptide substrate is no longer detectable. 50 ul of the reaction in the 384-well polypropylene plate was then transferred to a 384-well Flashplate and the biotinylated peptides were allowed to bind to the streptavidin surface for at least 1 hour before being washed once with 0.1% Tween20 in a Biotek ELx405 plate washer. The plates were then read in a PerkinElmer TopCount plate reader to measure the quantity of ^3H-labeled peptide bound to the Flashplate surface, measured as disintegrations per minute (dpm) or alternatively, referred to as counts per minute (cpm).
Where dpm=disintegrations per minute, cmpd=signal in assay well, and min and max are the respective minimum and maximum signal controls.
Where top and bottom are the normally allowed to float, but may be fixed at 100 or 0 respectively in a 3-parameter fit. The Hill Coefficient normally allowed to float but may also be fixed at 1 in a 3-parameter fit. Y is the % inhibition and X is the compound concentration.
Compound `CCn1ncc(CN(C)CCNC)c1-c1ccc(OC(C)C)cc1` [Compound 252] gave an IC50 of 531 nM.
As for `CNCCN(C)Cc1c[nH]nc1-c1ccc(OC)cc1OC` [Compound 55], the figure is 4200 nM.
Consider `CNCCN(C)Cc1c[nH]nc1-c1ccc(F)c(F)c1` [Compound 51], for which it took 625 nM to reach half-maximal inhibition (IC50).
As for `CNCCN(C)Cc1cn(C2CCCCC2)nc1-c1ccc(OC(C)C)cc1` [Compound 256], the figure is 571 nM; as for `CNCCN(C)Cc1c[nH]nc1-c1cccc2ccccc12` [Compound 57], 1310 nM; as for `CCN(CCN)Cc1c[nH]nc1-c1ccc(F)cc1` [Compound 62], 672 nM.
Next, `CNCCN(C)Cc1cn(CCC(O)CO)nc1-c1ccc(F)cc1` (stereo not shown) [Compound 59]: 4590 nM; `CNCCN(C)Cc1c[nH]nc1-c1ccc(C(=O)c2ccccc2)cc1` [Compound 45]: 42.9 nM; `CNCCN(C)Cc1cnn(CCCC(O)CO)c1-c1ccc(F)cc1` (stereo not shown) [Compound 31]: 1840 nM.
As to `CNCCN(C)Cc1c[nH]nc1-c1cccc(C#N)c1` [Compound 22], the IC50 was found to be 1370 nM.
As for `CCNC(=O)c1cccc(-c2n[nH]cc2CN(C)CCNC)c1` [Compound 43], the figure is 4960 nM.
Next, `CNCCN(C)Cc1c[nH]nc1-c1ccc(F)cc1F` [Compound 49]: 5040 nM.
As to `C=CC(=O)Nc1cccc(-c2[nH]ncc2CN(C)CCNC)c1` [Compound 258], it took 1700 nM to reach half-maximal inhibition (IC50).
Turning to `CNCCN(C)Cc1c[nH]nc1-c1ccc(CO)cc1` [Compound 28], inhibition was half-maximal at 337 nM (IC50).
As for `CNCCN(C)Cc1c[nH]nc1-c1cccc(OC)c1` [Compound 24], the figure is 1210 nM; as for `CNCCN(C)Cc1cnn(CC(=O)OC)c1-c1ccc(OC(C)C)cc1` [Compound 249], 9630 nM.
In the case of `CNCCN(C)Cc1c[nH]nc1-c1ccc(Oc2ccccc2)cc1` [Compound 37], the IC50 was 15.2 nM.
As for `CNCCN(C)Cc1c[nH]nc1-c1cccc([N+](=O)[O-])c1` [Compound 21], the figure is 2090 nM; as for `CNCCN(C)Cc1c[nH]nc1-c1ccc(C)cc1C` [Compound 29], 6300 nM.
As for `CNCCN(C)Cc1c[nH]nc1-c1ccc2ccccc2c1` [Compound 58], the figure is 582 nM; as for `CNCCN(C)Cc1cn(Cc2cccnc2)nc1-c1ccc(OC(C)C)cc1` [Compound 246], 2430 nM; as for `CNCCN(C)Cc1c[nH]nc1-c1ccc(OC)cc1` [Compound 25], 1560 nM.
Next, `CNCCN(C)Cc1c[nH]nc1-c1ccccc1OC` [Compound 23]: 1760 nM.
In the case of `CNCCN(C)Cc1cn(Cc2ccccn2)nc1-c1ccc(OC(C)C)cc1` [Compound 247], the IC50 came out at 2820 nM.
Next, `CNCCN(C)Cc1cn(CC(N)=O)nc1-c1ccc(OC(C)C)cc1` [Compound 251]: 2980 nM; `CNCCN(C)Cc1cn(CCCC(O)CO)nc1-c1ccc(F)cc1` (stereo not shown) [Compound 30]: 3680 nM; `CNCCN(C)Cc1c[nH]nc1-c1ccc(N)cc1` [Compound 33]: 1380 nM.
As for `CN(CCN)Cc1cn(CCO)nc1-c1ccc(F)cc1` [Compound 66], the figure is 3790 nM.
The compound `CNCCN(C)Cc1c[nH]nc1-c1cccc(O)c1` [Compound 26] showed a half-maximal inhibitory concentration (IC50) of 2340 nM.
Next, `CN(CCN)Cc1c[nH]nc1-c1ccc(C#N)cc1` [Compound 68]: 802 nM; `CN(CCN)Cc1cnn(CCO)c1-c1ccc(F)cc1` [Compound 65]: 8930 nM; `CNCCN(C)Cc1c[nH]nc1-c1ccc(O)cc1` [Compound 27]: 1710 nM.
In the case of `CNCCN(C)Cc1c[nH]nc1-c1ccc(OC)c(F)c1` [Compound 52], the IC50 was 1500 nM.
As for `CNCCN(C)Cc1cn(CCOC)nc1-c1ccc(OC(C)C)cc1` [Compound 253, N1-((3-(4-isopropoxyphenyl)-1-(2-methoxyethyl)-1H-pyrazol-4-yl)methyl)-N1,N2-dimethylethane-1,2-diamine hydrochloride], the figure is 2260 nM.
For `CNCCN(C)Cc1cn(CC(=O)OC)nc1-c1ccc(OC(C)C)cc1` [Compound 248], the IC50 is 3750 nM.
As for `CNCCN(C)Cc1cnn(C2CCCC2)c1-c1ccc(OC(C)C)cc1` [Compound 255], the figure is 1170 nM; as for `CNCCN(C)Cc1c[nH]nc1-c1cc(F)ccc1F` [Compound 50], 4320 nM; as for `CNCCN(C)Cc1cn(C2CCC2)nc1-c1ccc(OC(C)C)cc1` [Compound 254, N1-((1-cyclobutyl-3-(4-isopropoxyphenyl)-1H-pyrazol-4-yl)methyl)-N1,N2-dimethylethane-1,2-diamine hydrochloride], 413 nM.
`CNCCN(C)Cc1cn(C)nc1-c1ccc(OC(C)C)cc1` [Compound 243, N^1-((3-(4-isopropoxyphenyl)-1-methyl-1H-pyrazol-4-yl)methyl)-N1,N2-dimethylethane-1,2-diamine] gave an IC50 of 301 nM.
For the compound `CCCc1ccc(-c2n[nH]cc2CN(C)CCNC)cc1` [Compound 20], half-maximal inhibition (IC50) required 278 nM.

As a reminder, the IC50 is the concentration that gives 50% inhibition. A lower IC50 goes with greater potency.
